Experimental findings from ChEMBL document CHEMBL1201862, “PubChem BioAssay data set” (2004) are described below.

Test systems include COLO 205; HOP-92; SF-539; IGROV-1; UACC-62; UACC-257; HCC 2998; KM12; SK-OV-3; NCI-H522; OVCAR-5; DU-145; NCI-H23; SK-MEL-28; OVCAR-3; U-251; SNB-19; K562; RPMI-8226; Malme-3M.
What all share (assay): NCI-60 cell line screen, 48 h

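All cell lines were grown in 96-well plates and treated with compound for 48 hours. GI50: concentration for 50% inhibition of growth.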 The source made the active and inactive calls. No stated cut-off is given here; in the data, active = GI50 up to about 1.1 µM and inactive = higher.

As for `Oc1ccc(C[C@@H]2CN[C@H](Cc3ccc(O)c(Br)c3)CN2)cc1`, the GI50 in the assay on COLO 205, with HOP-92, in the assay on SF-539, in the assay on IGROV-1, in the assay on UACC-62 and in the assay with UACC-257 was > 100 µM (inactive) each time. Also, the GI50 in the assay with HCC 2998, in the assay with KM12, with SK-OV-3, in the assay on NCI-H522, with OVCAR-5 and in the assay on DU-145 was > 100 µM (inactive) in each case. The GI50 with NCI-H23, in the assay with SK-MEL-28, with OVCAR-3 and in the assay on U-251 was > 100 µM (inactive) throughout.
On to `Cc1nc2c(sc3nc4c(cc32)CCC4)c(=O)o1`, for which the GI50 in the assay with COLO 205 was 54.6 µM (inactive); in the assay with HOP-92 it was > 50.1 µM (inactive); with SNB-19 it was > 53.2 µM (inactive); in the assay on SF-539, 40.5 µM (inactive); with IGROV-1 it was 20.6 µM (inactive); with UACC-62, > 100 µM (inactive). In addition, the GI50 in the assay on UACC-257 was 89.1 µM (inactive); in the assay with HCC 2998 it was 28.6 µM (inactive); in the assay on KM12, > 87.1 µM (inactive); in the assay with SK-OV-3, > 100 µM (inactive); in the assay with NCI-H522, 31 µM (inactive); in the assay with OVCAR-5 it was > 95.1 µM (inactive). Besides, the GI50 was 57.9 µM (inactive) in the assay with K562; 48.9 µM (inactive) in the assay on RPMI-8226; > 100 µM (inactive) in the assay on DU-145; 67.9 µM (inactive) in the assay on NCI-H23; 46.7 µM (inactive) in the assay on SK-MEL-28; 37.8 µM (inactive) with OVCAR-3. Moreover, the GI50 with U-251 is > 83.2 µM (inactive).
Turning to `O=C(NCCCCNCCCNC(=O)OCc1ccccc1)OCc1ccccc1`, the GI50 in the assay with COLO 205 is 16.9 µM (inactive); in the assay with HOP-92 it was 22.7 µM (inactive); in the assay on SNB-19, 37.8 µM (inactive); with SF-539 it was 21.3 µM (inactive); in the assay on IGROV-1 it was 22.1 µM (inactive); in the assay on UACC-62, 17.9 µM (inactive). Besides, the GI50 was 19.2 µM (inactive) in the assay on UACC-257; 19.5 µM (inactive) in the assay on HCC 2998; 32 µM (inactive) in the assay with KM12; 69.7 µM (inactive) in the assay with SK-OV-3; 21.2 µM (inactive) in the assay on NCI-H522; 85.1 µM (inactive) with OVCAR-5. For the same molecule, the GI50 with K562 was 30.8 µM (inactive); in the assay with RPMI-8226, 39 µM (inactive); with DU-145 it was 73.6 µM (inactive); in the assay with NCI-H23, > 100 µM (inactive); in the assay with SK-MEL-28 it was 18.4 µM (inactive); in the assay on OVCAR-3 it was > 100 µM (inactive). In addition, the GI50 with U-251 is 34.5 µM (inactive).
With `CSc1nc(NC(C)C)c2c(n1)Sc1nc3ccccc3n1N=C2`, the GI50 was 7.69 µM (inactive) in the assay with COLO 205; 11.1 µM (inactive) in the assay with HOP-92; 7.57 µM (inactive) with SNB-19; 16.9 µM (inactive) with IGROV-1; 6.62 µM (inactive) with UACC-62; 29.1 µM (inactive) with UACC-257. The GI50 was 3.65 µM (inactive) in the assay on HCC 2998; 16.5 µM (inactive) in the assay on KM12; 11.1 µM (inactive) in the assay with SK-OV-3; 22.9 µM (inactive) in the assay on NCI-H522; 31.3 µM (inactive) in the assay on OVCAR-5; 50.9 µM (inactive) in the assay on K562. Besides, the GI50 in the assay on Malme-3M is 9.18 µM (inactive); in the assay with RPMI-8226 it was 0.335 µM (active); in the assay on DU-145 it was 12.7 µM (inactive); with NCI-H23, 11.7 µM (inactive); in the assay on SK-MEL-28, > 100 µM (inactive); with OVCAR-3, 10.4 µM (inactive). In addition, the GI50 with U-251 was 11.5 µM (inactive).
In the case of `C[C@H](CO)C1=CC(C#C[Si](C)(C)C)N(C(=O)Oc2ccccc2)c2ccccc21` (stereo partly drawn), the GI50 in the assay on COLO 205 was 5.6 µM (inactive); in the assay on HOP-92 it was 12.9 µM (inactive); in the assay with SNB-19, 15.8 µM (inactive); with SF-539 it was 16 µM (inactive); in the assay on IGROV-1, 12.4 µM (inactive); in the assay on UACC-62, 5.3 µM (inactive). Moreover, the GI50 is 13.6 µM (inactive) in the assay on UACC-257; 10.6 µM (inactive) in the assay with HCC 2998; 4.93 µM (inactive) with KM12; 11.6 µM (inactive) with SK-OV-3; 3.94 µM (inactive) in the assay with NCI-H522; 15 µM (inactive) in the assay on OVCAR-5. Besides, the GI50 with K562 was 4.54 µM (inactive); with RPMI-8226, 20 µM (inactive); in the assay on DU-145, 16.9 µM (inactive); with NCI-H23, 4.29 µM (inactive); in the assay on SK-MEL-28, 16.6 µM (inactive); in the assay on OVCAR-3, 3.93 µM (inactive). Besides, the GI50 in the assay on U-251 is 14.6 µM (inactive).
`NC1c2c(Cl)sc(Cl)c2C(=O)C1O` (stereo not drawn): the GI50 in the assay on COLO 205 is 18.2 µM (inactive); in the assay with HOP-92, 13.1 µM (inactive); in the assay on SNB-19, 41.3 µM (inactive); in the assay with SF-539, 76.2 µM (inactive); with IGROV-1, 57.9 µM (inactive); in the assay with UACC-62 it was 17.7 µM (inactive). The GI50 in the assay with UACC-257 is 43.4 µM (inactive); in the assay with HCC 2998, 17 µM (inactive); in the assay with KM12, > 100 µM (inactive); in the assay with SK-OV-3, > 100 µM (inactive); in the assay with NCI-H522 it was 18.2 µM (inactive); with OVCAR-5 it was > 100 µM (inactive). Further, the GI50 in the assay on K562 was 29.4 µM (inactive); with Malme-3M it was 37.9 µM (inactive); in the assay with DU-145, > 100 µM (inactive); in the assay with NCI-H23 it was 15.6 µM (inactive); in the assay with OVCAR-3, 30.8 µM (inactive); in the assay on U-251, 21.2 µM (inactive).
For the molecule `O=C(OCc1ccccc1)N1c2cc([N+](=O)[O-])ccc2C(=O)N2CCC[C@H]2C1O` (stereo partly drawn), the GI50 in the assay on COLO 205, in the assay with HOP-92, in the assay with SNB-19, with SF-539, in the assay with IGROV-1 and in the assay on UACC-62 was > 100 µM (inactive) each time. Besides, the GI50 in the assay with UACC-257, with HCC 2998, in the assay on KM12, with SK-OV-3, with NCI-H522 and with OVCAR-5 was > 100 µM (inactive) throughout. Besides, the GI50 with K562, in the assay with RPMI-8226, with DU-145, in the assay with NCI-H23, with SK-MEL-28 and in the assay on OVCAR-3 was > 100 µM (inactive) in each case. Besides, in the assay with U-251, the GI50 is > 100 µM (inactive).
`Nc1ncc(Br)c(NCC2(CO)CCC2)n1`: the GI50 was > 100 µM (inactive) in the assay with COLO 205; 56.1 µM (inactive) with HOP-92; > 100 µM (inactive) in the assay on SF-539; > 100 µM (inactive) in the assay with IGROV-1; > 100 µM (inactive) with UACC-62; > 100 µM (inactive) in the assay with UACC-257. Besides, the GI50 is > 100 µM (inactive) in the assay with HCC 2998; > 100 µM (inactive) in the assay with KM12; 92 µM (inactive) with NCI-H522; 20.7 µM (inactive) with OVCAR-5; > 100 µM (inactive) in the assay on K562; > 100 µM (inactive) in the assay on Malme-3M. Further, the GI50 in the assay on RPMI-8226 is 42.8 µM (inactive); in the assay on DU-145, 81.3 µM (inactive); with NCI-H23, > 100 µM (inactive); with SK-MEL-28, > 100 µM (inactive); with OVCAR-3, > 100 µM (inactive); in the assay with U-251, > 100 µM (inactive).
For the molecule `Oc1nc2ccccc2c(O)c1Cc1ccccc1`, the GI50 in the assay on COLO 205, in the assay on HOP-92, with SNB-19, in the assay on SF-539, in the assay on IGROV-1 and in the assay on UACC-257 was > 100 µM (inactive) in each case. In addition, the GI50 in the assay with HCC 2998, with KM12, with NCI-H522, in the assay on OVCAR-5, in the assay with K562 and in the assay with Malme-3M was > 100 µM (inactive) throughout. Also, the GI50 with RPMI-8226, with DU-145, in the assay on NCI-H23, in the assay on SK-MEL-28, in the assay on OVCAR-3 and in the assay with U-251 was > 100 µM (inactive) each time.
For `COC(=O)C1CC(C=O)=C(SC)N1` (stereo not drawn), the GI50 in the assay on COLO 205, in the assay with HOP-92, in the assay on SNB-19, with IGROV-1, with UACC-62 and in the assay with UACC-257 was > 50 µM (inactive) throughout. The GI50 with HCC 2998, in the assay with KM12, with SK-OV-3, in the assay on NCI-H522, in the assay with OVCAR-5 and with K562 was > 50 µM (inactive) each time. For the same molecule, the GI50 in the assay with Malme-3M, in the assay on RPMI-8226, in the assay on DU-145, in the assay with NCI-H23, in the assay on SK-MEL-28 and in the assay with OVCAR-3 was > 50 µM (inactive) throughout. The GI50 in the assay with U-251 was > 50 µM (inactive).
Take `COc1ccc(CC2c3cc(OC)c(OC)c(OC)c3CC[N+]2(C)C)cc1Oc1ccc(CC2c3cc4c(c(OC)c3CCN2C)OCO4)cc1` (stereo not drawn): the GI50 in the assay on COLO 205, in the assay on HOP-92, with SNB-19, in the assay with SF-539, in the assay with IGROV-1 and in the assay on UACC-62 was > 100 µM (inactive) each time. The GI50 was > 100 µM (inactive) in the assay on UACC-257; > 100 µM (inactive) in the assay on HCC 2998; > 100 µM (inactive) in the assay with KM12; > 100 µM (inactive) in the assay with SK-OV-3; 97.7 µM (inactive) with NCI-H522; > 100 µM (inactive) with OVCAR-5. Also, the GI50 is 57.5 µM (inactive) with K562; > 100 µM (inactive) in the assay with Malme-3M; > 100 µM (inactive) with DU-145; > 100 µM (inactive) with NCI-H23; > 100 µM (inactive) with SK-MEL-28; > 100 µM (inactive) in the assay on OVCAR-3. In the assay on U-251, the GI50 is > 100 µM (inactive).
